Test results published in ChEMBL document CHEMBL2321655, “Insulin-like growth factor-1 receptor inhibitors: a potential cancer treatment: patent highlight” (ACS Med Chem Lett, 2013).

Legend:
MCF7 = assay: Antiproliferative activity against human MCF7 cells; format: functional, cell-based
HT-29 = assay: Antiproliferative activity against human HT-29 cells; format: functional, cell-based

## NC(=O)c1[nH]c2c(N)cc(Cl)cc2c1S(=O)(=O)N1CCOC(COc2ccccc2)C1 (stereo not drawn)
MCF7
  IC50: 2200 nM
HT-29
  IC50: > 10000 nM

## CCOC(=O)N1CCC(Nc2cc(Cl)cc3c(S(=O)(=O)N4CCOC(COc5ccccc5)C4)c(C(N)=O)[nH]c23)CC1 (stereo not drawn)
MCF7
  IC50: 900 nM
HT-29
  IC50: 1700 nM

## NC(=O)c1[nH]c2c(NC3CCOCC3)cc(Cl)cc2c1S(=O)(=O)N1CCOC(COc2ccccc2)C1 (stereo not drawn)
MCF7
  IC50: 800 nM
HT-29
  IC50: 2800 nM

## N#CCCNc1cc(Cl)cc2c(S(=O)(=O)N3CCOC(COc4ccccc4)C3)c(C(N)=O)[nH]c12 (stereo not drawn)
MCF7
  IC50: < 1000 nM
HT-29
  IC50: 5300 nM
